Test results from patent publication US20050282743A1, “Molecular interactions in cells” (Arbor Vita Corporation, priority 2001, published 2005).
Ends that are not written are not given here. Peptide text beside a SMILES is read from it. * marks the point of attachment. Biotin = O=C1N[C@H]2[C@H](CS[C@H]2CCCCC(=O)*)N1

Test system: PDZ protein (GST-PDZ fusion)
Assay: G' assay (10 uM PL peptide), results of TABLE 7 and TABLE 12
Assay type: binding
How it was run: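 Biotinylated PL peptides at 10 uM (vs 20 uM in G^0 assay) bound to GST-PDZ fusions; PDZ protein at 5 ug/ml unless another concentration listed. Bound peptide read as A450 nm, classified 0–5 (0 = A450 0; 5 = A450 >4 repeated).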

[1] = PDZ HEMBA 1003117, PDZ Domain 1

| Molecule | Classification (PDZ SHANK, PDZ Domain 1) | Classification [1] | also measured |
| --- | --- | --- | --- |
| CC[C@H](C)[C@H](NC(=O)[C@H](CO)NC(=O)[C@H](CCC(=O)O)NC(=O)[C@H](Cc1ccc(O)cc1)NC(=O)[C@H](CC(=O)O)NC(=O)[C@H](CC(N)=O)NC(=O)[C@H](CCC(=O)O)NC(=O)[C@H](CCCCN)NC(=O)CCCC[C@@H]1SC[C@@H]2NC(=O)N[C@@H]21)C(=O)N[C@@H](CO)C(=O)N[C@@H](CC(=O)O)C(=O)N[C@@H](CC(C)C)C(=O)N[C@@H](CCC(N)=O)C(=O)N[C@@H](CCC(N)=O)C(=O)NCC(=O)N[C@@H](CCCNC(=N)N)C(=O)N[C@@H](CC(=O)O)C(=O)N[C@H](C(=O)N[C@H](C(=O)N[C@@H](CCCNC(=N)N)C(=O)N[C@@H](CC(C)C)C(=O)O)[C@@H](C)O)[C@@H](C)CC [PAG] (Biotin-KENDYESISDLQQGRDITRL-OH; C-terminus assumed) | 4 (A450 nm 3-4) | – | Classification (PDZ FLJ 00011, PDZ Domain 1): 3 (A450 nm 2-3) |
| CC[C@H](C)[C@H](NC(=O)[C@H](Cc1ccc(O)cc1)NC(=O)[C@H](CC(C)C)NC(=O)[C@H](CCC(N)=O)NC(=O)[C@H](Cc1c[nH]cn1)NC(=O)[C@H](CO)NC(=O)[C@H](C)NC(=O)[C@H](CC(C)C)NC(=O)[C@@H](NC(=O)[C@H](CC(=O)O)NC(=O)[C@H](CCSC)NC(=O)[C@H](Cc1ccccc1)NC(=O)[C@@H]1CCCN1C(=O)[C@H](CCCNC(=N)N)NC(=O)[C@@H](NC(=O)[C@H](CC(C)C)NC(=O)[C@H](CC(N)=O)NC(=O)[C@H](CC(=O)O)NC(=O)[C@@H](NC(=O)[C@H](CO)NC(=O)CCCC[C@@H]1SC[C@@H]2NC(=O)N[C@@H]21)[C@@H](C)O)C(C)C)[C@@H](C)O)C(=O)O [presenilin-2] (Biotin-STDNLVRPFMDTLASHQLYI-OH; C-terminus assumed) | – | 4 (A450 nm 3-4) | – |
| CC[C@H](C)[C@H](NC(=O)[C@H](Cc1ccc(O)cc1)NC(=O)[C@@H](NC(=O)[C@@H]1CCCN1C(=O)[C@H](CCC(N)=O)NC(=O)[C@H](CCC(=O)O)NC(=O)[C@H](CCC(N)=O)NC(=O)[C@H](C)NC(=O)[C@@H](NC(=O)[C@H](CC(C)C)NC(=O)[C@H](CC(C)C)NC(=O)[C@H](CCCNC(=N)N)NC(=O)[C@H](Cc1ccc(O)cc1)NC(=O)[C@H](CCSC)NC(=O)[C@H](C)NC(=O)[C@H](C)NC(=O)[C@@H]1CCCN1C(=O)[C@H](CCSC)NC(=O)[C@@H](NC(=O)[C@H](CCCCN)NC(=O)CCCC[C@@H]1SC[C@@H]2NC(=O)N[C@@H]21)[C@@H](C)O)[C@@H](C)O)C(C)C)C(=O)O [MINT-1] (Biotin-KTMPAAMYRLLTAQEQPVYI-OH; C-terminus assumed) | – | 3 (A450 nm 2-3) | – |
| LNETTETQRTLLNGDLQTSI (Biotin-LNETTETQRTLLNGDLQTSI) [SSTR2 (somatostatin recepor 2)] | 1 (A450 nm 0-1) | – | – |
| KTMPAATYRLLTGQEQPVYL (Biotin-KTMPAATYRLLTGQEQPVYL) [MINT-3] | – | – | Classification (PDZ LIM Protein, PDZ Domain 1): 1 (A450 nm 0-1) |
| CC(C)C[C@H](NC(=O)[C@H](C)NC(=O)[C@@H](NC(=O)[C@@H](NC(=O)[C@H](Cc1c[nH]cn1)NC(=O)[C@H](CC(C)C)NC(=O)CNC(=O)[C@H](CCC(N)=O)NC(=O)CNC(=O)CNC(=O)[C@H](C)NC(=O)[C@H](C)NC(=O)[C@H](CCCNC(=N)N)NC(=O)[C@H](C)NC(=O)[C@H](CO)NC(=O)[C@H](CC(=O)O)NC(=O)[C@H](CC(=O)O)NC(=O)[C@H](Cc1c[nH]c2ccccc12)NC(=O)[C@H](C)NC(=O)CCCC[C@@H]1SC[C@@H]2NC(=O)N[C@@H]21)C(C)C)[C@@H](C)O)C(=O)O [LPAP] (Biotin-AWDDSARAAGGQGLHVTAL-OH; C-terminus assumed) | 3 (A450 nm 2-3) | 1 (A450 nm 0-1) | Classification (PDZ BAI-1, PDZ Domain 2): 2 (A450 nm 1-2); Classification (PDZ FLJ 00011, PDZ Domain 1): 4 (A450 nm 3-4); Classification (PDZ Unnamed Protein, PDZ Domain 2): 3 (A450 nm 2-3) |
| KTMPAAMFRLLTGQETPLYI (Biotin-KTMPAAMFRLLTGQETPLYI) [MINT-2] | – | 3 (A450 nm 2-3) | – |
| PPATPSPRLALPAHHNATRL (Biotin-PPATPSPRLALPAHHNATRL) [Na+/Pi cotransporter 2] | 5 (A450 nm of 4 more than 2× repeated) | – | – |
| GPVPGEPAKPKTSAHHATFV (Biotin-GPVPGEPAKPKTSAHHATFV) | – | 1 (A450 nm 0-1) | – |
